The test system of data set [1] is delayed type hypersensitivity to methylated BSA. To be noted: mice; cited from earlier work.
For data set [2], the system named is imiquimod-induced psoriasis. To be noted: mice; cited from earlier work.
Another data set has as its system human CD3+ T cells. To be noted: 1-10 μM; anti-CD3/anti-CD28 microbead stimulation; cited from earlier work.
Another data set has as its system cancer patients. Nature of the data set: Phase 1 trial of PFK-158 in cancer patients (clinical response, tolerability). In kind it is in vivo. As for the experimental part: A phase 1 trial of PFK-158 in cancer patients is currently being conducted at Georgetown University, UT Southwestern, Md. Anderson Cancer Center and the U. of Louisville (clinicaltrials.gov# NCT02044861). […] Institutional investigators have observed partial tumor regressions in 3 patients with ocular melanoma, ovarian cancer and renal cell carcinoma and de novo stabilization of tumor burden in 2 patients (breast and adenoid cystic carcinoma). A person with ocular melanoma was administered 24 mg/M^2 in cohort 1 of the phase 1 trial of PFK-158—a dose that is markedly lower than that required to cause the known cytotoxic effects of PFK-158. […] Over the course of six months of therapy, several of the patient's hepatic metastases first became necrotic after 2 monthly cycles (hypoattenuation appears dark on CT imaging) and then shrunk after 6 cycles (FIG. 18).
The patient was administered PFK-158 for 4 cycles and their bony metastases were deemed to be stable (FIG. 19, left two panels) and several liver metastases became necrotic (FIG. 19, right panel).
(§1) 18 cancer patients completed 2 cycles of 24-470 mg/M^2 PFK-158; 5 of these patients experienced stabilization of their disease (i.e. no growth and no new tumors) and tumor regressions have been observed in multiple patients. For example, a person with renal cell carcinoma who had progressed after all available FDA-approved agents including mTOR and VEGFR inhibitors and IL-2 entered the study (470 mg/M^2). They experienced stabilization of disease by immune-related response criteria (26% reduction in maximum diameters) with multiple tumors regressing and has entered their seventh month of treatment. Of these 18 patients, immunophenotyping by flow cytometry on 4 patients' PBMCs has been carried out. These four patients were administered PFK-158 for 2 weeks and PBMCs were collected at baseline, day 15, and then analyzed by flow cytometry for CD3+CD4+il-17+ cells and CD8+CD137+ T cells.

Data set [3] has as its system peripheral blood mononuclear cells. Nature of the data set: Flow cytometry of peripheral blood mononuclear cells of a breast cancer patient receiving PFK-158. In kind it is in vivo, human. The following applies: after 1 week, persisted through treatment. How it is done: An unexpected stability of tumors in multiple patients receiving PFK-158 at doses that were considered to be sub-therapeutic has been observed. […] This breast adenocarcinoma patient received 96 mg/M^2 of PFK-158 every other day for three weeks followed by a one week rest—this cycle was repeated for a total of four cycles. Peripheral blood mononuclear cells were collected on days 1, 8, 15, 22 and 62 and flow cytometry was conducted for a multitude of immunosuppressive cells and activated T cells. […] These cells are the main CD8+ T cells that can infiltrate tumors and differentiate into cytolytic T cells which kill tumor cells. […]
Given the decrease in Th17 cells and increase in effector CD8^+ T cells observed after PFK-158 administration, the ability of PFK-158 to cause an increase in terminally-differentiated CD8^+ effector cells was examined. CD8^+CD57^+CD27^− TCD28^− The breast cancer patient described in Example 7 was administered PFK-158 for 1 cycle and PBMCs were collected at baseline, day 8, 15, 22, and then analyzed for CD8^+CD57^+CD27^− TCD28^− T cells and PD-1. […]
CD57 is a terminally sulfated carbohydrate that is selectively expressed on antigen-specific, and functionally competent memory/effector CD8^+ T cells. […] PBMCs were collected at baseline, day 8, 15, and 22 and CD8^+CD57^+CD27^− CD28^− T cells were analyzed for CD57 expression. […]

A further data set deals with PBMCs. Nature of the data set: Immunophenotyping by flow cytometry of PBMCs of 4 metastatic cancer patients. In kind it is in vivo, human. To be noted: of 4 patients; after 15 days of administration. How it is done:
as §1

For another data set, the system named is γδT17 cells. As to the kind of experiment: IL-17A production (ELISA) during in vitro polarization of Vγ9Vδ2 T cells. The following applies: PFK-158 every two days of culture, FIG. 17E,F. In kind it is cell-based, human. From the text: (§2) The differentiation of Th17 cells from naïve CD4^+ T cells was induced and, for γδT17 cells, naïve Vγ9Vδ2 T cells were isolated from healthy donors and polarized into IL-17 producing γ6T cells using established methods.
(§3) Human naïve CD4^+ T cells differentiated into Th17 cells or sorted human naïve Vγ9Vδ2 T cells were polarized in vitro and analyzed for PFKFB2-4 mRNA (FIG. 17 A,B), F26BP, and PFKFB3 protein (FIG. 17 C,D). The CD4^+ T cells (during in vitro Th17 differentiation) and Vγ9Vδ2 T cells (during in vitro polarization) were exposed to vehicle (DMSO) or the indicated concentrations of PFK-158 (every two days of the culture period) and IL-17A production was quantified by ELISA (FIG. 17 E,F).

For another data set, the system named is Th17 cells. As to the kind of experiment: IL-17A production (ELISA) during in vitro Th17 differentiation. In kind it is cell-based, human. To be noted: PFK-158 every two days of culture, FIG. 17E,F.
Source text: as §2, §3

Regarding `O=C(C=Cc1cccnc1)c1ccncc1` [3PO, 3-(3-pyridinyl)-1-(4-pyridinyl)-2-propen-1-one], the “development of delayed type hypersensitivity to methylated BSA” value in data set [1] is listed as “suppressed”. Besides, the “development of imiquimod-induced psoriasis” value in data set [2] was “suppressed”. In addition, in the data set on human CD3+ T cells, the “stimulation of F2,6BP synthesis, 2-[1-14C]-deoxy-D-glucose uptake, lactate secretion, TNF-α secretion and T cell aggregation and proliferation” value is “markedly attenuated”.

As to `O=C(/C=C/c1ccc2ccc(C(F)(F)F)cc2n1)c1ccncc1` [PFK-158, (E)-1-(pyridyn-4-yl)-3-(7-(trifluoromethyl)quinolin-2-yl)-prop-2-en-1-one], in the data set on cancer patients (breast and adenoid cystic carcinoma), the “patients with de novo stabilization of tumor burden” value was 2 patients. Further, in the data set on cancer patients (ocular melanoma, ovarian cancer and renal cell carcinoma), the “patients with partial tumor regressions” value is given as 3 patients. Also, in the data set on cancer patients (of 18 cancer patients who completed 2 cycles of 24-470 mg/M^2), the “patients with stabilization of their disease” value turned out to be 5 patients. For the same compound, the “reduction in maximum diameters (immune-related response criteria)” value with cancer patients (person with renal cell carcinoma, 470 mg/M^2) came out at 26%. Also, in the data set on cancer patients (phase 1 trial, entered cohort 7, currently at 650 mg/M^2), the maximum tolerated dose entry is reported as “without reaching a maximum tolerated dose”. The “increase in circulating cancer-reactive CD8+/CD57+/CD27-/CD28- T cells” value in data set [3] is recorded as 36%. For the same compound, the “patients with a reduction in frequency of Th17 cells” value in the data set on PBMCs is 4 patients. In addition, the “concentration reducing IL-17A, fold less than required to inhibit neoplastic and endothelial cells growth” value in the data set on γδT17 cells and in the data set with Th17 cells was around 10 fold throughout.

These data come from patent US20180147198A1, “COMBINATIONS OF PFKFB3 INHIBITORS AND IMMUNE CHECKPOINT INHIBITORS TO TREAT CANCER” (UNIVERSITY OF LOUISVILLE RESEARCH FOUNDATION, INC., priority 2015, published 2018).
